Common to all, as to format: in vivo, humans
In experiment [1] the test system is respiratory illness, COVID-19. Briefly: Cough severity by Cough Severity Visual Analogue Scale over 4 days. To be noted: 10 g, orally, vs not administered, FIG. 1. How it is done:
(§1) A composition comprising 10 g of R-beta-hydroxybutyrate was administered to individuals twice a day. […] The patients were tested and monitored to determine the impact of administration of beta-hydroxybutyrate on the illness progression and recovery. Administration of the beta-hydroxybutyrate reduced the number of symptoms and the severity of symptoms. […] Since quicker returns to normal values may indicate less chances for long-term continuance of viral respiratory illnesses (e.g., long-haul or long-term Covid-19), administration of beta-hydroxybutyrate may be associated with decreased potential for long-term continuance of symptoms.
FIG. 1 graphically illustrates cough measured over 4 days for individuals administrated 10 g of R-beta-hydroxybutyrate and not administered 10 g of R-beta-hydroxybutyrate. Cough severity was measured using the Cough Severity Visual Analogue Scale. As illustrated, cough severity was lower with administration of 10 g of R-beta-hydroxybutyrate. Furthermore, cough severity was not as high when beta-hydroxybutyrate was orally administered.

Experiment [2] concerns respiratory illness, COVID-19. As to the kind of experiment: Cardiovascular endurance, standard 15 minute cycling test over 4 days. To be noted: 10 g vs not administered, FIG. 3. How it is done: as §1
FIG. 3 graphically illustrates endurance capacity monitoring in individuals over 4 days for individuals administered 10 g of R-beta-hydroxybutyrate and not administered 10 g of R-beta-hydroxybutyrate. Cardiovascular endurance was measured using a standard 15 minute cycling test and is illustrated in FIG. 3 as a percentage of normal.

Experiment [3] relates to respiratory illness, COVID-19. Briefly: Symptoms and recovery monitoring in individuals with COVID-19 administered R-beta-hydroxybutyrate. To be noted: composition comprising 10 g twice a day. How it is done:
as §1

Experiment [4] has as its system respiratory illness, COVID-19. Briefly: Lung function (FEV) measurements over 4 days. To be noted: FIG. 2. How it is done: as §1
FIG. 2 graphically illustrates lung function measurements over 4 days for individuals administered 10 g of R-beta-hydroxybutyrate and not administered 10 g of R-beta-hydroxybutyrate. […] As illustrated, improvement in FEV plateaued when beta-hydroxybutyrate was not administered while it continued to improve when R-beta-hydroxybutyrate was administered. Reduction in the chances of plateauing lung function (e.g., at reduced levels) may decrease potential for long-term continuance of symptoms such as those found in long term or long-haul COVID-19 sufferers (e.g., individuals who had COVID-19 and continue to present with symptoms 4 or more weeks after infection).

Consider `C[C@@H](O)CC(=O)O` [R-beta-hydroxybutyrate, (R)-3-Hydroxybutyric acid], for which the “cough severity (Cough Severity Visual Analogue Scale)” value in experiment [1] is recorded as “lower”. Moreover, in experiment [2], the “cardiovascular endurance as a percentage of normal” value was “overall better” and the “recovery to normal cardiovascular endurance” value is listed as “quicker recovery to normal”. Also, in experiment [3], the number of symptoms result is “reduced”, the recovery time result is reported as “decreased” and the severity of symptoms entry is given as “reduced”. In addition, the “time for lung function to improve to normal” value in experiment [4] (10 g vs not administered (FEV plateaued without)) was “improve to normal more quickly”. Moreover, the “FEV (as a % of normal FEV)” value in experiment [4] (10 g vs not administered) is given as “higher overall”.

Source of the values: patent publication US12396971B2, “Administration of beta-hydroxybutyrate and related compounds in humans for the treatment and/or prevention of respiratory illnesses” (AXCESS GLOBAL SCIENCES, LLC, priority 2020, dated 2025).
